Legend:
[1] = test system: ZAP-70 phosphorylation in Jurkat T cells; assay: Western blot of ZAP-70 phosphorylation in Jurkat T cells; format: cell-based; settings: 5 μM overnight, OKT3 stimulated
[2] = test system: phosphorylation of ERK1/2 and STAT3/5 in RAS-mutated HL60 cells; assay: Western blot of IgG2-stimulated phosphorylation in HL-60 cells; format: cell-based; settings: 5 μM
HL60 cells = assay: XTT cell proliferation assay, HL-60 cells; format: cell-based
[3] = test system: phosphorylation of Syk, ERK1/2 and STAT3/5 in entospletinib-resistant MV4-11 cells; settings: 5 μM
[4] = test system: PM translocation of EGFP-Syk WT in Syk−/− DT40 cells; assay: Subcellular localization of EGFP-Syk WT in IgM-stimulated Syk-null DT40 cells; format: cell-based; settings: 10 nM overnight
Syk in MV4-11 cells = Syk in MV4-11 cells (Homo sapiens, UniProt P43405); assay: WC36B-streptavidin pull down assay with immunoblotting; format: binding
[5] = test system: WC36B-binding cellular proteins of MV4-11 cells; assay: Mass spectrometry-based proteomics of WC36B-binding cellular proteins; design: species or system human; settings: biotin as negative control

c1cn2cc(-c3ccc4cn[nH]c4c3)nc(Nc3ccc(N4CCOCC4)cc3)c2n1 [entospletinib]
inhibition of ZAP-70 phosphorylation [1]: significantly inhibited | suppression of phosphorylation of ERK1/2 and STAT3/5 [2]: could not suppress phosphorylation | suppression of proliferation (XTT assay) (HL60 cells): ineffective | inhibition of phosphorylation of Syk, ERK1/2 and STAT3/5 [3]: could not inhibit phosphorylation

CS(=O)(=O)N1CCN(Cc2cc3nc(-c4cccc5[nH]ncc45)nc(N4CCOCC4)c3s2)CC1 [GDC-0941]
PM translocation of EGFP-Syk WT [4]: greatly suppressed

Nc1ncnc2c1ncn2[C@@H]1O[C@H](COP(=O)(O)OP(=O)(O)OP(=O)(O)O)[C@@H](O)[C@H]1O [ATP]
competition with WC36B for Syk binding (Syk in MV4-11 cells; WC36 10 μM, entospletinib 10 μM, ATP 1 mM): only WC36 was able to compete

[N-]=[N+]=C(C(=O)NCCNC(=O)CCCC[C@H]1SC[C@H]2NC(=O)N[C@H]21)C(Nc1ncccn1)c1c[nH]c2ccccc12 (some centres unmarked) [WC36B]
capture of Syk by streptavidin beads pulldown (Syk in MV4-11 cells; MV4-11 cells, 5 μM, 24 h): targets Syk | proteins captured compared with biotin control [5]: Syk is the single major protein
